Measured values taken from publication PMC10239507, “Development of allosteric and selective CDK2 inhibitors for contraception with negative cooperativity to cyclin binding” (Nature Communications, 2023).

Key:
Experiment in all cases: biochemical
[1] = target: T1, 371 kinases (kinase named in each endpoint) (Homo sapiens, UniProt O00506); conditions: STK25/YSK1
T1 construct: purchased Reaction Biology

[2] = target: T2, 371 kinases (kinase named in each endpoint) (Homo sapiens, UniProt O43353); conditions: RIPK2
T2 construct: purchased Reaction Biology

[3] = target: T3, 371 kinases (kinase named in each endpoint) (Homo sapiens, UniProt O43781); conditions: DYRK3
T3 construct: purchased Reaction Biology

[4] = target: T4, 371 kinases (kinase named in each endpoint) (Homo sapiens, UniProt O60307); conditions: MAST3
T4 construct: purchased Reaction Biology

[5] = target: T5, 371 kinases (kinase named in each endpoint) (Homo sapiens, UniProt O60674); conditions: JAK2
T5 construct: purchased Reaction Biology

[6] = target: T6, 371 kinases (kinase named in each endpoint) (Homo sapiens, UniProt P06239); conditions: LCK
T6 construct: purchased Reaction Biology

[7] = target: T7, 371 kinases (kinase named in each endpoint) (Homo sapiens, UniProt P06493)
T7 construct: purchased Reaction Biology

[8] = target: T8, 371 kinases (kinase named in each endpoint) (Homo sapiens, UniProt P07333); conditions: FMS
T8 construct: purchased Reaction Biology

[9] = target: T9, 371 kinases (kinase named in each endpoint) (Homo sapiens, UniProt P08922); conditions: ROS/ROS1
T9 construct: purchased Reaction Biology

[10] = target: T10, 371 kinases (kinase named in each endpoint) (Homo sapiens, UniProt P10721); conditions: C-KIT
T10 construct: purchased Reaction Biology

[11] = target: T11, 371 kinases (kinase named in each endpoint) (Homo sapiens, UniProt P15056); conditions: BRAF
T11 construct: purchased Reaction Biology

[12] = target: T12, 371 kinases (kinase named in each endpoint) (Homo sapiens, UniProt P16234); conditions: PDGFRA
T12 construct: purchased Reaction Biology

[13] = target: T13, 371 kinases (kinase named in each endpoint) (Homo sapiens, UniProt P19784); conditions: CK2A2
T13 construct: purchased Reaction Biology

[14] = target: T14, 371 kinases (kinase named in each endpoint) (Homo sapiens, UniProt P22694); conditions: PKACB
T14 construct: purchased Reaction Biology

[15] = target: T15, 371 kinases (kinase named in each endpoint) (Homo sapiens, UniProt P29597); conditions: TYK2
T15 construct: purchased Reaction Biology

[16] = target: T16, 371 kinases (kinase named in each endpoint) (Homo sapiens, UniProt P35968); conditions: KDR/VEGFR2
T16 construct: purchased Reaction Biology

[17] = target: T17, 371 kinases (kinase named in each endpoint) (Homo sapiens, UniProt P43405); conditions: SYK
T17 construct: purchased Reaction Biology

[18] = target: T18, 371 kinases (kinase named in each endpoint) (Homo sapiens, UniProt Q00537); conditions: CDK17/CYCLIN Y (PCTK2)
T18 construct: purchased Reaction Biology

[19] = target: T19, 371 kinases (kinase named in each endpoint) (Homo sapiens, UniProt Q02763); conditions: TIE2/TEK
T19 construct: purchased Reaction Biology

[20] = target: T20, 371 kinases (kinase named in each endpoint) (Homo sapiens, UniProt Q05655); conditions: PKCD
T20 construct: purchased Reaction Biology

[21] = target: T21, 371 kinases (kinase named in each endpoint) (Homo sapiens, UniProt Q12866); conditions: C-MER
T21 construct: purchased Reaction Biology

[22] = target: T22, 371 kinases (kinase named in each endpoint) (Homo sapiens, UniProt Q13188); conditions: MST2/STK3
T22 construct: purchased Reaction Biology

[23] = target: T23, 371 kinases (kinase named in each endpoint) (Homo sapiens, UniProt Q15746); conditions: MLCK/MYLK
T23 construct: purchased Reaction Biology

[24] = target: T24, 371 kinases (kinase named in each endpoint) (Homo sapiens, UniProt Q16832); conditions: DDR2
T24 construct: purchased Reaction Biology

[25] = target: T25, 371 kinases (kinase named in each endpoint) (Homo sapiens, UniProt Q6DT37); conditions: DMPK2
T25 construct: purchased Reaction Biology

[26] = target: T26, 371 kinases (kinase named in each endpoint) (Homo sapiens, UniProt Q6PHR2); conditions: ULK3
T26 construct: purchased Reaction Biology

[27] = target: T27, 371 kinases (kinase named in each endpoint) (Homo sapiens, UniProt Q8IWQ3); conditions: BRSK2
T27 construct: purchased Reaction Biology

[28] = target: T28, 371 kinases (kinase named in each endpoint) (Homo sapiens, UniProt Q8IYT8); conditions: ULK2
T28 construct: purchased Reaction Biology

[29] = target: T29, 371 kinases (kinase named in each endpoint) (Homo sapiens, UniProt Q8NEV4); conditions: MYO3A
T29 construct: purchased Reaction Biology

[30] = target: T30, 371 kinases (kinase named in each endpoint) (Homo sapiens, UniProt Q96GX5); conditions: MASTL
T30 construct: purchased Reaction Biology

[31] = target: T31, 371 kinases (kinase named in each endpoint) (Homo sapiens, UniProt Q99759); conditions: MEKK3
T31 construct: purchased Reaction Biology

[32] = target: T32, 371 kinases (kinase named in each endpoint) (Homo sapiens, UniProt Q9BXA7); conditions: STK22D/TSSK1
T32 construct: purchased Reaction Biology

[33] = target: T33, 371 kinases (kinase named in each endpoint) (Homo sapiens, UniProt Q9H1R3); conditions: MLCK2/MYLK2
T33 construct: purchased Reaction Biology

[34] = target: T34, 371 kinases (kinase named in each endpoint) (Homo sapiens, UniProt Q9UEE5); conditions: DRAK1/STK17A
T34 construct: purchased Reaction Biology

[35] = target: T35, 371 kinases (kinase named in each endpoint) (Homo sapiens, UniProt Q9Y4K4); conditions: KHS/MAP4K5
T35 construct: purchased Reaction Biology

[36] = target: T36, 371 kinases (kinase named in each endpoint) (Homo sapiens, UniProt Q9Y6E0); conditions: MST3/STK24
T36 construct: purchased Reaction Biology

T7 sequence (P06493 whole entry): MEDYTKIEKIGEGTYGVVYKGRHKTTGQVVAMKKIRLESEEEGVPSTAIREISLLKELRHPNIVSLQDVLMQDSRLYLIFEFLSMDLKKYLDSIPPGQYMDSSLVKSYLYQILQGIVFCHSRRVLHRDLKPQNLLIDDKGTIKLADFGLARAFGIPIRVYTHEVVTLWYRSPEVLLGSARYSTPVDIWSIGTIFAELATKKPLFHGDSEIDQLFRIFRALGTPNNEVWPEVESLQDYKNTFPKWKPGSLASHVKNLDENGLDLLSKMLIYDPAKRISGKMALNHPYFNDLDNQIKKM
T8 sequence (P07333 20-972): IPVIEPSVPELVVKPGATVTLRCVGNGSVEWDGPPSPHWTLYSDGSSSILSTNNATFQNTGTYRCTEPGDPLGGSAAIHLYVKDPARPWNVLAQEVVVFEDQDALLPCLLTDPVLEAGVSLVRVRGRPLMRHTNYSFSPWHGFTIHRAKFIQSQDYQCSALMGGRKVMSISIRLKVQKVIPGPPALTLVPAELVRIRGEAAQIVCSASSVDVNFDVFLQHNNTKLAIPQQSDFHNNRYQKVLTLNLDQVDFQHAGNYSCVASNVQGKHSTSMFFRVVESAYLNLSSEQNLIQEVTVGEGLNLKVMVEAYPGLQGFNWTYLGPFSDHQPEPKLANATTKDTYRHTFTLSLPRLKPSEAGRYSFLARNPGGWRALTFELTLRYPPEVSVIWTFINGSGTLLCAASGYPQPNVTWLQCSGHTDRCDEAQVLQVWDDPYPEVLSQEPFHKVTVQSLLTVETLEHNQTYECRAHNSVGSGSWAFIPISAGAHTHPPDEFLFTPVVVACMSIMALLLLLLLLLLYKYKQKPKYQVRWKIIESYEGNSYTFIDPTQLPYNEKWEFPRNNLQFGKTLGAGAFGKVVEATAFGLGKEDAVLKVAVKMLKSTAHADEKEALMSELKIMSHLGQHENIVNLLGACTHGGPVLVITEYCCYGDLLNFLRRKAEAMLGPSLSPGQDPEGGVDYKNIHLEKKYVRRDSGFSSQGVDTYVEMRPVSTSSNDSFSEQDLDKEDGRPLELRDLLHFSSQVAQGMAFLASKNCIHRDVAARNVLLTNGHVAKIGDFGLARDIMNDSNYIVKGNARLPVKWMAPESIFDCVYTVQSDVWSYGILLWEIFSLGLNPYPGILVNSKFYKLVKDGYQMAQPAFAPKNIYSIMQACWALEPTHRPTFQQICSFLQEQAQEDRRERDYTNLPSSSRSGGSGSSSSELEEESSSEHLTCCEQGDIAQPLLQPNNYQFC
T10 sequence (P10721 26-976): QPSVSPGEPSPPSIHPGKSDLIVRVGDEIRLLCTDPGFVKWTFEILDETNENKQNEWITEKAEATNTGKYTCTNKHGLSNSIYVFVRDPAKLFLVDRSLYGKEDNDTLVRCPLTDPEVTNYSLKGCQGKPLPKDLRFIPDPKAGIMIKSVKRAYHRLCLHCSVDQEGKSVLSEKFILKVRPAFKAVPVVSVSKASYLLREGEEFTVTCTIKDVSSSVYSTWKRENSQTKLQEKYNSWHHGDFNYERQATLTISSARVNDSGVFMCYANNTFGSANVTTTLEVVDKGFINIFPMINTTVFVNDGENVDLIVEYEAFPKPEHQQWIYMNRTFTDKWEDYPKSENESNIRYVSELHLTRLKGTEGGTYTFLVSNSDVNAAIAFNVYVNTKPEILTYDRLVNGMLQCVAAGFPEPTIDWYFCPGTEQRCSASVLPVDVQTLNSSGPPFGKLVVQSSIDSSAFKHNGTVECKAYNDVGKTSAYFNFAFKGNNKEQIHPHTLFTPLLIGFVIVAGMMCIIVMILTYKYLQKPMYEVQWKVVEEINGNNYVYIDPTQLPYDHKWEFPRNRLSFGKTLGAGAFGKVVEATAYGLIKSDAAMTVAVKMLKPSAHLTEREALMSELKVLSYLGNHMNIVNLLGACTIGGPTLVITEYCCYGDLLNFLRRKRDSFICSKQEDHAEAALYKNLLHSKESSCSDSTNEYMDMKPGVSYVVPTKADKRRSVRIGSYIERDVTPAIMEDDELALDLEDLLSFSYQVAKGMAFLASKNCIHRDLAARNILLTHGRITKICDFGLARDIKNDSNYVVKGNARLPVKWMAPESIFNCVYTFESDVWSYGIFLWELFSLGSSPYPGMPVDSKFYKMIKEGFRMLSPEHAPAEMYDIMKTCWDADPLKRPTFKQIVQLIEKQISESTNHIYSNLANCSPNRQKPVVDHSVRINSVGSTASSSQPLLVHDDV
T24 sequence (Q16832 22-855): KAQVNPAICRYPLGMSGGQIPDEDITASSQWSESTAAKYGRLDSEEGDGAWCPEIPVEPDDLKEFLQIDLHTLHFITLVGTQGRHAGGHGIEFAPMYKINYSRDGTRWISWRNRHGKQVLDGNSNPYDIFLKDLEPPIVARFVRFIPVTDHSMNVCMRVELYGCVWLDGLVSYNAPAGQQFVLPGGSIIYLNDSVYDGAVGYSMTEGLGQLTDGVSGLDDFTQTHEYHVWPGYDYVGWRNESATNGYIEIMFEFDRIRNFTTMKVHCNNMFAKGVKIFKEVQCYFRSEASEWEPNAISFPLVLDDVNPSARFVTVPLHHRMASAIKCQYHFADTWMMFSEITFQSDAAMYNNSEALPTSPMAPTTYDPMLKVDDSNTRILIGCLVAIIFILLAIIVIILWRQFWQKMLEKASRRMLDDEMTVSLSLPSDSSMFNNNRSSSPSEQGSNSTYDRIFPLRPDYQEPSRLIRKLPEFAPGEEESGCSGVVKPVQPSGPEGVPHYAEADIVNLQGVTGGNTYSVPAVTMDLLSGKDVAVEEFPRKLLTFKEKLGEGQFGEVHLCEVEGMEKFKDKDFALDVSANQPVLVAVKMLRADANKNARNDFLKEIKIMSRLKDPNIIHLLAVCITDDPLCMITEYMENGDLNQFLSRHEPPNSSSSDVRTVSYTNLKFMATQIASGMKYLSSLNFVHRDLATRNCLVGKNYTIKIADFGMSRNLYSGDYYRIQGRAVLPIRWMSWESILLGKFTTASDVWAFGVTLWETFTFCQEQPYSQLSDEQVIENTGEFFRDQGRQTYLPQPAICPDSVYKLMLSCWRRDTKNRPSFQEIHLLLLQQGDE
T16 sequence (P35968 20-1356): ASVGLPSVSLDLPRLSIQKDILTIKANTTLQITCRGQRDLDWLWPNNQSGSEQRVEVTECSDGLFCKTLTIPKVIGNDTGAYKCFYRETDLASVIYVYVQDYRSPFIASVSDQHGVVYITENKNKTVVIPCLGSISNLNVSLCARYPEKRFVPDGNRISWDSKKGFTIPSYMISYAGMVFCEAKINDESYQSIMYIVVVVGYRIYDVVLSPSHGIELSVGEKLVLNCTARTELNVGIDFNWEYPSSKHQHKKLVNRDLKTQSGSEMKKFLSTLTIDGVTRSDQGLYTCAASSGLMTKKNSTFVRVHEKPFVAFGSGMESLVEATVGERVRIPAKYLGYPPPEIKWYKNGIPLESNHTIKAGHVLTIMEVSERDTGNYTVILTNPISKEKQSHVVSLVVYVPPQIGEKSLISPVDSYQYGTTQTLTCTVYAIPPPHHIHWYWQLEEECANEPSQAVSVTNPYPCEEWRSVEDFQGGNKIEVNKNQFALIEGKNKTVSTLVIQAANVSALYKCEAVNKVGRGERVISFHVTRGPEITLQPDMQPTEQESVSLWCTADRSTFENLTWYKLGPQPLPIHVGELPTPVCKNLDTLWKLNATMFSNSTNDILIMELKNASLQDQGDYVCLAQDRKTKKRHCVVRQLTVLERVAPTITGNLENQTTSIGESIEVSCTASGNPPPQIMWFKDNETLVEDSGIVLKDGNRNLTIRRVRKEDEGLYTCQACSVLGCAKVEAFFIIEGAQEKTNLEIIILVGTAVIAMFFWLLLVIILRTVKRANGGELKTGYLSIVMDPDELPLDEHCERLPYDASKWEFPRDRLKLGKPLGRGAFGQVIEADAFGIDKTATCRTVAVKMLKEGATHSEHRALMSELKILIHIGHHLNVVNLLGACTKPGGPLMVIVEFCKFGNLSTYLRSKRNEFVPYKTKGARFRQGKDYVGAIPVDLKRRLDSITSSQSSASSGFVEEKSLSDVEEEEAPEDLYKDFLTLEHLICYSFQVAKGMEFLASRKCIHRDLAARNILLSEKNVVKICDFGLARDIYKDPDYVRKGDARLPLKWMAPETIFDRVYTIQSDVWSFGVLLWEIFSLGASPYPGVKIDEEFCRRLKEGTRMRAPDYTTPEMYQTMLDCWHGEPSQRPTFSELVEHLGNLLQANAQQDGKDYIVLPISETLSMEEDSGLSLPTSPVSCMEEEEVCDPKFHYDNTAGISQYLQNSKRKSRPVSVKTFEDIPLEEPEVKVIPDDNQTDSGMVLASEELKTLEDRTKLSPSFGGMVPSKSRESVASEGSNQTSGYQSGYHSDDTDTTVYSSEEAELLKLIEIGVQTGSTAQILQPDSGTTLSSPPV
T13 sequence (P19784 whole entry): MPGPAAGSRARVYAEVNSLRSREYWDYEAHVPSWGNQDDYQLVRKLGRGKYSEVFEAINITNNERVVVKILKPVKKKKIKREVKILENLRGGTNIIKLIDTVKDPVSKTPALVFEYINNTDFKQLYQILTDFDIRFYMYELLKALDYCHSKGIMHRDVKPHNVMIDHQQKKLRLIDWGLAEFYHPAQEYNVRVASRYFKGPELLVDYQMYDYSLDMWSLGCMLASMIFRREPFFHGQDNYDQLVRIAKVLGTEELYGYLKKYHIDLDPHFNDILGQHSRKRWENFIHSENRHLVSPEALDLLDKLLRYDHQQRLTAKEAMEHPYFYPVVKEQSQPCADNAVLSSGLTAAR

O=C(O)c1cc(C(F)(F)F)ccc1NCCc1c[nH]c2cc(Br)ccc12 [Compound 5, 2-((2-(6-Bromo-1H-indol-3-yl)ethyl)amino)−5-(trifluoromethyl)benzoic Acid]
activity at 10 µM [1]: 124 ± 1.4% | activity at 10 µM [2]: 109 ± 2.9% | activity at 10 µM [3]: 57.3 ± 2.4% | activity at 10 µM [4]: 94.9 ± 0.2% | activity at 10 µM [5]: 78.8 ± 1.9% | activity at 10 µM [6]: 76.5 ± 2.7% | activity at 10 µM ([7]; CDK1/CYCLIN E): 60.2 ± 0.3% | activity at 10 µM ([7]; CDK1/cyclin A): 95.4 ± 0.8% | activity at 10 µM [8]: 98 ± 1.7% | activity at 10 µM [9]: 94.7 ± 1.4% | activity at 10 µM [10]: 84.5 ± 2.5% | activity at 10 µM [11]: 98.7 ± 0.5% | activity at 10 µM [12]: 86.9 ± 0.2% | activity at 10 µM [13]: 46.9 ± 0.5% | activity at 10 µM [14]: 93.4 ± 0.4% | activity at 10 µM [15]: 78.1 ± 0.7% | activity at 10 µM [16]: 87.7 ± 1.6% | activity at 10 µM [17]: 85.8 ± 1.6% | activity at 10 µM [18]: 124% | activity at 10 µM [19]: 93.7 ± 0.9% | activity at 10 µM [20]: 54.7 ± 2.7% | activity at 10 µM [21]: 52.1 ± 1.5% | activity at 10 µM [22]: 134 ± 0.4% | activity at 10 µM [23]: 57.6 ± 2% | activity at 10 µM [24]: 103 ± 3.6% | activity at 10 µM [25]: 96.2 ± 1.7% | activity at 10 µM [26]: 89.9 ± 1.4% | activity at 10 µM [27]: 79.5 ± 0.8% | activity at 10 µM [28]: 102.4 ± 0.4% | activity at 10 µM [29]: 118 ± 3.4% | activity at 10 µM [30]: 101.7 ± 0.2% | activity at 10 µM [31]: 107 ± 1.1% | activity at 10 µM [32]: 103.5 ± 0.1% | activity at 10 µM [33]: 70.7 ± 0.3% | activity at 10 µM [34]: 109 ± 2.6% | activity at 10 µM [35]: 72 ± 2.8% | activity at 10 µM [36]: 104 ± 1.9%
